In article PMC7932537, “Quantitative profiling of protease specificity” (PLoS Computational Biology, 2021):

Legend:
[1] = tested on: MMP-2; test: N-terminomic (TMT) analysis of MMP-treated HEK293 secretome: isotopic enrichment of novel N-termini; type: biochemical, human; conditions: for isotopic enrichment (log2(ratio)): MMP2 cleavages in HEK293 cell proteins, determined by LC-MS/MS, novel N-termini, sections log2(ratio) >3σ, 2σ-3σ, 1σ-2σ, RP above 4.5
Method: (§1) This was done to achieve a reasonable compromise between the false positive and false negative rates based on the statistical model developed by the authors. […] (See Methods for details).
(§2) HEK293 cells were seeded in 150-mm tissue culture dishes (Corning) and grown to confluence. The confluent cultures were washed with PBS several times to remove serum proteins and kept in serum-free DMEM supplemented with 1 μM GM6001 for 72 hours at 37 C, 5% CO2. The conditioned media was centrifuged at 10,000 x g for 30 minutes at 4 C and concentrated ~100-fold using Centricon Plus-70 (AMD Millipore) 3-kDa m.w. cut-off ultrafilter, and the buffer was exchanged to 50 mM HEPES pH 7.0 containing 150 mM NaCl and 10 mM CaCl2 (Reaction Buffer) using a PD-10 desalting column (GE Healthcare). Aliquots containing 240 μg total protein were incubated at 37 C in the presence of 750 nM MMP2 or 9 or the Reaction Buffer alone for 2 hours. Each reaction was carried out in duplicate. The reactions were stopped by addition of 20 mM EDTA and subjected to denaturation/reduction (4M Urea and 10 mM TCEP, 1 h, 22°C) and alkylation (20 mM iodoacetamide, 30 min, 22°C, in dark). […] The TMT-labeled samples were pooled together, and subjected to TCA precipitation (20% TCA, 16 h, 4°C). Each pellet was washed with -20°C acetone, recovered in 50 mM Tris-HCl pH 8.0, and then digested with trypsin/Lys-C (Promega) for 16 h at 37°C. Digestions were stopped with 0.2% TFA and centrifuged to remove insoluble material. The supernatants were then desalted using Sep-Pak C18 cartridge (50 mg), and then lyophilized.
(§3) Dried pooled sample was reconstituted in 20 mM ammonium formate pH ~10 and fractionated using a Waters Acquity BEH C18 column (2.1x 15 cm, 1.7 μm pore size) mounted on an M-Class Ultra Performance Liquid Chromatography (UPLC) system (Waters). […] A total of 32 fractions were collected and pooled in a non-contiguous manner into 16 total fractions. Pooled fractions were dried to completeness in a SpeedVac concentrator prior to mass spectrometry analysis.
(§4) Dried peptide fractions were reconstituted with 2% ACN-0.1% FA and analyzed by LC-MS/MS using a Proxeon EASY nanoLC system (Thermo Fisher Scientific) coupled to a Q-Exactive Plus mass spectrometer (Thermo Fisher Scientific). […] The mass spectrometer was operated in positive data-dependent acquisition mode. MS1 spectra were measured with a resolution of 70,000 (AGC target: 1e6; mass range: 350–1700 m/z).
(§5) The false discovery rate (FDR) filter for spectrum and protein identification was set to 1%. Carbamidomethylation of cysteines was searched as a fixed modification, while oxidation of methionines and N-terminal acetylation were searched as variable modifications. Enzyme was set to trypsin in a semispecific mode and a maximum of two missed cleavages was allowed for searching. To obtain quantification of the TMT-labeled N-termini, two independent searches were performed–one with TMT10plex MS2 N-terminal reporter quantification and the other for quantification of N-terminal and lysine sidechain.

[2] = tested on: MMP-9; test: as above; type: biochemical, human; conditions: for isotopic enrichment (log2(ratio)): MMP9 cleavages in HEK293 cell proteins, determined by LC-MS/MS, log2(ratio) range (>3σ, 2σ-3σ, 1σ-2σ); for isotopic enrichment (log2(ratio)) (acc.to MMP9): HEK293 proteins
Method: as §1, §2, §3, §4, §5

[3] = MS detected cleavage sequence, HEK293 proteins, common MMP2-9 selectome
[4] = MS detected cleavage sequence, common MMP2-9 selectome
[5] = MMP2 cleaved HEK293 proteins, common set of MMP2-9 selectome, LC-MS/MS
[6] = MMP9, common set of MMP2-9 selectome, LC-MS/MS
[7] = MS detected cleavage sequence, HEK293 proteins, unique part of MMP2 selectome
[8] = MS detected cleavage sequence, unique part of MMP2 selectome

Substance	isotopic enrichment (log2(ratio)) (acc.to MMP2) [1, 3]	isotopic enrichment (log2(ratio)) [2]	isotopic enrichment (log2(ratio)) (acc.to MMP9) [2, 4]	isotopic enrichment (log2(ratio)) (acc.to MMP2) [1, 5]	isotopic enrichment (log2(ratio)) (acc.to MMP9) [2, 6]	isotopic enrichment (log2(ratio)) (acc.to MMP2) [1, 7]	isotopic enrichment (log2(ratio)) (acc.to MMP9) [2, 8]	isotopic enrichment (log2(ratio)) [1]
MSPQL-LYDAAP	0.5656 log2(ratio)	1.465	1.465 log2(ratio)	–	–	–	–	–
HLVRN-IQLEQP	3.263 log2(ratio)	3.981	3.981 log2(ratio)	3.263	3.981	–	–	–
PEPPP-LSGAPQ	1.367 log2(ratio)	1.9855	1.9855 log2(ratio)	1.367	1.9855	–	–	–
GEVQA-MLGQST	0.5656 log2(ratio)	1.4957	1.4957 log2(ratio)	–	–	–	–	–
GRSAP-LAAGCP	–	–	–	–	–	3.5097 log2(ratio)	3.246 log2(ratio)	–
IFLRE-LISNAS	1.176 log2(ratio)	1.628	1.628 log2(ratio)	1.176	1.628	–	–	–
FSVSS-LAEGSV	–	–	–	1.257	1.22	–	–	1.257 log2(ratio)
SHLGR-YLAADK	–	–	–	–	–	2.483 log2(ratio)	-1.0291 log2(ratio)	–
SLARA-YSSFNP	2.269 log2(ratio)	2.539	2.539 log2(ratio)	2.269	2.539	–	–	–
QLNAQ-LAAGNP	–	–	–	–	–	1.66 log2(ratio)	0.8237 log2(ratio)	–
FSLFG-LGGEPG	1.417 log2(ratio)	2.104	2.104 log2(ratio)	1.417	2.104	–	–	–
PFPDG-LAEDID	0.9928 log2(ratio)	3.878	3.878 log2(ratio)	–	–	–	–	–
ISPGM-IKDCGA	1.183 log2(ratio)	2.036	2.036 log2(ratio)	1.183	2.036	–	–	–
EGPYS-ISVLYG	–	–	–	1.176	0.9411	–	–	1.176 log2(ratio)
KRIAN-LQTDLS	1.918 log2(ratio)	1.791	1.791 log2(ratio)	1.918	1.791	–	–	–
PEPES-WNAAQH	–	–	–	–	–	1.66 log2(ratio)	1.956 log2(ratio)	–
PALAY-LASAPP	–	–	–	–	–	1.345 log2(ratio)	0.4436 log2(ratio)	–
HLNRG-FHQEVF	–	–	–	–	–	1.531 log2(ratio)	1.782 log2(ratio)	–
VAAKN-LQEAEE	1.485 log2(ratio)	2.192	2.192 log2(ratio)	1.485	2.192	–	–	–

Substance	isotopic enrichment (log2(ratio)) (acc.to MMP2) [1, 3]	isotopic enrichment (log2(ratio)) [2]	isotopic enrichment (log2(ratio)) (acc.to MMP9) [2, 4]	isotopic enrichment (log2(ratio)) (acc.to MMP2) [1, 5]	isotopic enrichment (log2(ratio)) (acc.to MMP9) [2, 6]	isotopic enrichment (log2(ratio)) (acc.to MMP2) [1, 7]	isotopic enrichment (log2(ratio)) (acc.to MMP9) [2, 8]	isotopic enrichment (log2(ratio)) [1]
SEPAD-FKVDED	–	–	–	1.891	1.104	–	–	1.891 log2(ratio)
RTLRA-VCGQPG	0.2987 log2(ratio)	1.47	1.47 log2(ratio)	–	–	–	–	–
MEPVA-HFGLGK	0.3448 log2(ratio)	1.731	1.731 log2(ratio)	–	–	–	–	–
TDPSK-LDSGKE	1.911 log2(ratio)	2.9782	2.9782 log2(ratio)	1.911	2.9782	–	–	–
PQAKA-LLQDKD	0.9928 log2(ratio)	1.48	1.48 log2(ratio)	–	1.48	–	–	–
YNPMA-LYGSVP	0.669 log2(ratio)	1.709	1.709 log2(ratio)	–	–	–	–	–
DMAAA-MKAVTE	–	–	–	1.766	1.328	–	–	1.766 log2(ratio)
YRPVA-VALDTK	1.934 log2(ratio)	2.604	2.604 log2(ratio)	1.934	2.604	–	–	–
FHPEQ-LITGKE	2.036 log2(ratio)	2.628	2.628 log2(ratio)	2.036	2.628	–	–	–
TGPRF-LISDRD	1.669 log2(ratio)	2.331	2.331 log2(ratio)	1.669	2.331	–	–	–
STMNM-LGGGGS	–	–	–	–	–	2.417 log2(ratio)	0.9184 log2(ratio)	–
VVPFG-VPASAT	0.189 log2(ratio)	2.014	2.014 log2(ratio)	–	–	–	–	–
GFLAW-LYNESP	2.43 log2(ratio)	1.774	1.774 log2(ratio)	2.43	1.774	–	–	–
NFIQS-IISTVE	–	–	–	–	–	–	1.111 log2(ratio)	0.903 log2(ratio)
MVPRA-VYLPNC	1.989 log2(ratio)	2.491	2.491 log2(ratio)	1.989	2.491	–	–	–
SSPRH-SEAATA	3.599 log2(ratio)	4.654	4.654 log2(ratio)	3.599	4.654	–	–	–
GLPRE-LAEAVA	0.7485 log2(ratio)	2.272	2.272 log2(ratio)	–	–	–	–	–
PTPVP-VVGSQM	1.915 log2(ratio)	2.707	2.707 log2(ratio)	1.915	2.707	–	–	–
GYIGT-YCGQPV	–	–	–	–	–	2.548 log2(ratio)	2.478 log2(ratio)	–
